Laboratory results reported in BigSolDB 2.1.

OCCCCCCO
solubility (mole fraction)
Conditions | 283.15 K | 288.15 K | 293.15 K | 298.15 K | 303.15 K
in DMAc | 0.0205 | 0.0298 | 0.0469 | 0.0688 | 0.0939
in methanol | 0.365 | 0.428 | 0.51 | 0.585 | 0.698
in n-butanol | 0.316 | 0.389 | 0.479 | 0.577 | 0.689
